Assay results published in ChEMBL document CHEMBL1926625, “Identification of benzoxazin-3-one derivatives as novel, potent, and selective nonsteroidal mineralocorticoid receptor antagonists” (J Med Chem, 2011).

How the values were obtained:
Androgen receptor = target: T1, Androgen receptor (Homo sapiens, UniProt P10275); assay: Displacement of [3H]testosterone from AR
T1 sequence (P10275 whole entry): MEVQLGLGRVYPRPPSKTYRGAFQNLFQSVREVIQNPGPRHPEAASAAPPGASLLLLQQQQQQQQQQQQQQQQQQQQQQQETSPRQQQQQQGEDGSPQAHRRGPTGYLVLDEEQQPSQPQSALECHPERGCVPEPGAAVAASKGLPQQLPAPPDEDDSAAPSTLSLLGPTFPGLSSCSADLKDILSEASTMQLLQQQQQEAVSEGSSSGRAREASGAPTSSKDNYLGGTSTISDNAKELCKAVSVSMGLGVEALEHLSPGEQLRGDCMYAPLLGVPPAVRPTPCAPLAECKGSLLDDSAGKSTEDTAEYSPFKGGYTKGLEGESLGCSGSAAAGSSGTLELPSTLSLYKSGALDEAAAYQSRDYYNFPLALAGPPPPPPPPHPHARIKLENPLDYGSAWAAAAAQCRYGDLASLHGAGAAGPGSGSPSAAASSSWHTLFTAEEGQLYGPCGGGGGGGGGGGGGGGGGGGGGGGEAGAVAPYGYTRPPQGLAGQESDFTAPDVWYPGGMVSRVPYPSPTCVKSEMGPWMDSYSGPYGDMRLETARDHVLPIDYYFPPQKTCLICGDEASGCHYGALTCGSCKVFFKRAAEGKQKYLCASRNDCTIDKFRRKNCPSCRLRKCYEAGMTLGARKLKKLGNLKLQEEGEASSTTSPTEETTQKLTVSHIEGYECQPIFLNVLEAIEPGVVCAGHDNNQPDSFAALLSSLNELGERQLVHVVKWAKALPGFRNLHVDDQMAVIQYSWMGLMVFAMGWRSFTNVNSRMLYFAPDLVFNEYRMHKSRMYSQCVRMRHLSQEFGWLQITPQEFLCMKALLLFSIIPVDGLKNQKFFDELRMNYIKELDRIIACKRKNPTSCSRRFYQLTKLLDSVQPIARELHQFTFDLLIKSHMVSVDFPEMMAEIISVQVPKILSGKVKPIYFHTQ

[1] = target: T2, Mineralocorticoid receptor (Homo sapiens, UniProt P08235); assay: biochemical
T2 sequence (P08235 whole entry): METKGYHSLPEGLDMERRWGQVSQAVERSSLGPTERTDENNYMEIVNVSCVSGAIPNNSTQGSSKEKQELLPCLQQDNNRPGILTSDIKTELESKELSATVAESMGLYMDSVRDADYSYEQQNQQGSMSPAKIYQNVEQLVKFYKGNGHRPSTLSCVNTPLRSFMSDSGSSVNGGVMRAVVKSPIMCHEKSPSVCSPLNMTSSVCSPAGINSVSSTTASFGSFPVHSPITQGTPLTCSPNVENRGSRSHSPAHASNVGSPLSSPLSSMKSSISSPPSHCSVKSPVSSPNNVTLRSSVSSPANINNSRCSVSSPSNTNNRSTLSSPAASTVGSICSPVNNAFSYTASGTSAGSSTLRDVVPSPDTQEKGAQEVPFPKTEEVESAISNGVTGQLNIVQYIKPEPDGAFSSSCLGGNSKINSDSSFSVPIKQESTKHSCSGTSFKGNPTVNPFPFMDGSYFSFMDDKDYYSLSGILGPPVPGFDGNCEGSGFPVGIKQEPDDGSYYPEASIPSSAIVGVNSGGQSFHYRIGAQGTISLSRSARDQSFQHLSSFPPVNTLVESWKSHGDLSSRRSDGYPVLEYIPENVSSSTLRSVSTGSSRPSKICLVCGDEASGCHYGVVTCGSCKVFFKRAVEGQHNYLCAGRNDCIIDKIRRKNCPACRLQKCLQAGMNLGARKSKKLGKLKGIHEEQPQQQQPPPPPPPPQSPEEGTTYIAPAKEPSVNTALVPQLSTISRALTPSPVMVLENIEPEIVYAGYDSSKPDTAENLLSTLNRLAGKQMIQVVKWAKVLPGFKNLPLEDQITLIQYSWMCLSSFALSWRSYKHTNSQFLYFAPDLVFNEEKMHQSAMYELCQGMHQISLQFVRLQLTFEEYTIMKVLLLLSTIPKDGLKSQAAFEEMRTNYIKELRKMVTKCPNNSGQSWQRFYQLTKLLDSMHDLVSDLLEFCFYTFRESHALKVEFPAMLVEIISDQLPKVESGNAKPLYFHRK
Description: Displacement of [3H]aldosterone from cytosolic human MR expressed in HEK293 cells after 16 hrs by scintillation counting

Progesterone receptor = target: T3, Progesterone receptor (Homo sapiens, UniProt P06401); assay: Displacement of [3H]progesterone from PR
T3 sequence (P06401 whole entry): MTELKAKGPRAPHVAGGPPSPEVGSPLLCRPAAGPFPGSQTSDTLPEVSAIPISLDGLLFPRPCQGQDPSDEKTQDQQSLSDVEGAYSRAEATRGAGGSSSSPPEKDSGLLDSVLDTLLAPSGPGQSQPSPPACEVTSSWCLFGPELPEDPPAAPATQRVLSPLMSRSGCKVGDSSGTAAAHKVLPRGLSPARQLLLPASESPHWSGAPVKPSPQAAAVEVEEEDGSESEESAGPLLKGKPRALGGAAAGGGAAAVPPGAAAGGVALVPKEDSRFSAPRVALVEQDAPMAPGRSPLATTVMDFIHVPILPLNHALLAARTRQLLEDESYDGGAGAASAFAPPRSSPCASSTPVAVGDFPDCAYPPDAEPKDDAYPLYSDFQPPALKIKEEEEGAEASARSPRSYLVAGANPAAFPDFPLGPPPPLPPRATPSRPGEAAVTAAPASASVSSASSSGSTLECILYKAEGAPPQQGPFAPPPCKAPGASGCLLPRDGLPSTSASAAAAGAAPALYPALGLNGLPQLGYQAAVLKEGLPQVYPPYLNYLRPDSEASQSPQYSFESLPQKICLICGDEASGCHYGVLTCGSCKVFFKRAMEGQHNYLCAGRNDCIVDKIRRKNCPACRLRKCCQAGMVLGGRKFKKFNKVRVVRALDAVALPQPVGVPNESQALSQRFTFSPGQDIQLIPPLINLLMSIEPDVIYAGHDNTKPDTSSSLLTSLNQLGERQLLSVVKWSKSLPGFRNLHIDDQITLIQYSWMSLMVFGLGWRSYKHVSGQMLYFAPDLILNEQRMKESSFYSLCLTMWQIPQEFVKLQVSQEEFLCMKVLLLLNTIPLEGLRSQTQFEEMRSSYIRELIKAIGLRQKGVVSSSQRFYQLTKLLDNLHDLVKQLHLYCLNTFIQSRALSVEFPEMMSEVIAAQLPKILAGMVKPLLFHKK

[2] = target: T2, Mineralocorticoid receptor
Description: Antagonist activity at human MR transfected in human COS1 cells after 1 day by luciferase reporter gene assay

[3] = Clearance in Sprague-Dawley rat at 3 mg/kg, iv and 10 mg/kg, po; assay type: ADME, organism-based; conditions: in vivo
[4] = Bioavailability in Sprague-Dawley rat at 3 mg/kg, iv and 10 mg/kg, po; assay type: ADME, organism-based; conditions: in vivo
[5] = Volume of distribution at steady state in Sprague-Dawley rat at 3 mg/kg, iv and 10 mg/kg, po; assay type: ADME, organism-based; conditions: in vivo, read-out: Vdss
[6] = Mean residence time in Sprague-Dawley rat at 10 mg/kg, po; assay type: ADME, organism-based; design: dose 10 mg/kg, route oral; conditions: in vivo

IC50 (Androgen receptor): > 10000 nM
IC50 [1]: 41 nM
IC50 (Progesterone receptor): 1900 nM
IC50 [2]: 43 nM
clearance [3]: 22.1 mL/min/kg
bioavailability [4]: 50.7%
Vd [5]: 4.63 L/kg
MRT [6]: 4.39 h
Compound: Cc1cc(F)ccc1-n1nc(C(F)(F)F)cc1-c1ccc2c(c1)NC(=O)CO2
